In US9920063B2, “Melampomagnolide B derivatives” (Board of Trustees of the University of Arkansas, priority 2013, dated 2018):
Like-named read-outs stand apart in the source and are kept apart here.

How the values were obtained:
AML 052308 cells [1] = tested on: AML 052308 cells
Protocol: (§1) For each compound, in vitro cell culture studies were performed in which a range of concentrations (0.25-20 μM) was tested for cytotoxicity against leukemia cell lines, primary leukemia specimens and normal bone marrow controls.

M9 ENL cells [2] = tested on: M9 ENL cells
Protocol: (§2) Carbamate and carbonate derivatives of MMB were also screened for activity against M9 ENL cells at concentrations of 5, 10 and 20 μM (FIG. 10). […] Additionally, succinic amide derivatives of MMB were screened for activity against M9 ENL cells at concentrations of 5, 10 and 20 μM (FIG. 11).
(§3) Ester and amide derivatives of melampomagnolide B were screened for anti-leukemic activity against M9ENL AML cell lines (FIG. 12; FIG. 14; FIG. 15; FIG. 16). For each compound, in vitro cell culture studies were performed in which a range of concentrations (0.25-20 μM) was tested for cytotoxicity against leukemia cell lines, primary leukemia specimens and normal bone marrow controls.

AML 052308 cells [3] = assay: Antileukemic activity against AML 052308 cells in culture; conditions: for Fold more potent than parthenolide: AML 052308 cells
Protocol: as §1

[4] = tested on: AML 123009 primary isolate; assay: Antileukemic activity against AML 123009 primary isolate
Protocol: as §1

cord blood cells = assay: Toxicity against cord blood cells; format: cell-based
[5] = tested on: AML 100510 primary isolate; assay: Antileukemic activity against AML 100510 primary isolate
Protocol: as §1

M9 ENL cells [6] = assay: cells; conditions: 24 h
Protocol: as §2, §3

Structure (SMILES) | Fold more cytotoxic than MMB (AML 052308 cells [1]) | Antileukemic activity compared to MMB (M9 ENL cells [2]; M9 ENL cell line) | Fold more potent than parthenolide (AML 052308 cells [3]) | EC50 (AML 052308 cells [3]; AML 052308 cells in culture) [nM] | Antileukemic activity compared to MMB [4] | EC50 (cord blood cells) [nM] | Antileukemic activity compared to MMB [5] | EC50 (M9 ENL cells [6]) [nM] | EC50 (AML 052308 cells [3]) [nM] | EC50 (M9 ENL cells [2]; M9ENL AML cell lines, 24 hours of drug exposure) [nM]
C=C1C(=O)O[C@H]2[C@H]1CC/C(COC(=O)/C=C/c1c[nH]c3ccccc13)=C\CC[C@@]1(C)O[C@@H]21 [BS-2-04] | about 22 fold | good anti-leukemic activity compared to parent compound MMB | 10 fold | 720 | good anti-leukemic activity compared to parent compound MMB | 750 | good anti-leukemic activity compared to parent compound MMB | – | – | –
C=C1C(=O)O[C@H]2[C@H]1CC/C(COC(=O)c1ccc3cc[nH]c3c1)=C\CC[C@@]1(C)O[C@@H]21 [BS-2-05] | around 7 fold | – | around 3 fold | – | – | – | – | 2500 | 2500 | –
C=C1C(=O)O[C@H]2[C@H]1CC/C(COC(=O)Cc1c[nH]c3ccccc13)=C\CC[C@@]1(C)O[C@@H]21 [BS-2-32] | around 7 fold | – | around 3 fold | 4000 | – | – | – | – | – | 4000
